According to ChEMBL document CHEMBL1201862, “PubChem BioAssay data set” (2004):
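Values below derive from 48-hour exposures of cells grown in 96-well plates, with endpoints linearly interpolated between the two concentrations bracketing the appropriate inhibition level. GI50: concentration for 50% inhibition of growth.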 Active and inactive are the calls of the source. Cut-off read from the data, not from the text of the source: active = GI50 up to about 1.1 µM and inactive = higher.

Columns and labels:
Assay in all cases: NCI-60 cell line screen, 48 h
[1] = system: DLD-1
[2] = system: XF498
[3] = system: DMS-273
[4] = system: RXF 631
[5] = system: SNB-78
[6] = system: M19-MEL
[7] = system: LXFL 529
[8] = system: HOP-18

| SMILES | GI50 [1] | GI50 [2] | GI50 [3] | GI50 [4] | GI50 [5] | GI50 [6] | GI50 [7] | GI50 [8] |
| --- | --- | --- | --- | --- | --- | --- | --- | --- |
| CSc1nc(SC)c2c(C#N)n[nH]c2n1 | > 100 µM (inactive) | > 100 µM (inactive) | > 100 µM (inactive) | > 100 µM (inactive) | > 100 µM (inactive) | > 100 µM (inactive) | – | – |
| CCc1cccc(C(C)C)c1NC(=O)C(=O)CC(=O)c1c(C)[n+]([O-])c2ccccc2[n+]1[O-] | > 100 µM (inactive) | > 100 µM (inactive) | – | > 100 µM (inactive) | > 100 µM (inactive) | > 100 µM (inactive) | > 100 µM (inactive) | – |
| CO[C@@]1(c2ccccc2)O[C@H]2OCCC2[C@H]1c1ccc(Cl)cc1 (stereo partly specified) | 37.7 µM (inactive) | 25 µM (inactive) | 39.5 µM (inactive) | 29.4 µM (inactive) | 45.1 µM (inactive) | – | 27.9 µM (inactive) | 22.9 µM (inactive) |
| O=c1[nH]c(=O)n(C2CC(O)C(CO)O2)cc1OS(=O)(=O)C(F)(F)F (stereo unspecified) | > 100 µM (inactive) | < 0.01 µM (active) | > 100 µM (inactive) | > 100 µM (inactive) | – | > 100 µM (inactive) | > 100 µM (inactive) | > 100 µM (inactive) |
